Assay results taken from publication PMC10030409 (Investigational New Drugs, 2023).
Like-named read-outs stand apart in the source and are kept apart here.

Legend:
[1] = in vivo
Procedure: Polymorphisms in EGFR, ABCG2, ABCB1, and POR (Online Resource, Appendix A) were analyzed using TaqMan® probe-based assays (Applied Biosystems, Foster City, CA, USA), whereas the ABCG2 polymorphism (rs2231137) was studied using the CycleavePCR® assay (TaKaRa Bio Inc., Kusatsu, Japan). The detailed genotyping method is provided in the Online Resource (Appendix A).
Germline polymorphism and the worst grade of AE occurring in each patient were analyzed for pharmacogenomics–toxicity relationship analysis.
The cut-off date for data collection was April 4, 2022. Continuous variables such as AUC0–24 and laboratory data are presented as median (interquartile range, IQR); estimates of PopPK parameters are presented as mean (standard error, SE). […] Receiver operating characteristic (ROC) curve analysis was used to evaluate the discrimination potential of AUC0–24 for grade ≥ 2 AEs. […] All p-values were two-sided, and statistical significance was set at p < 0.05.
The EGFR polymorphisms (rs2293348, rs4947492, rs11977388, rs2227983, and rs884225), ABCG2 (rs2231142 and rs2622604), ABCB1 (rs1128503, rs1045642, and rs2032582), and POR (rs17685 and rs1057868) were analyzed using Taqman® probe-based assays (Applied Biosystems, CA, USA). The probes (FAM/VIC-fluorescent) and primers for these polymorphisms were purchased from Applied Biosystems (TaqMan® SNP Genotyping Assay ID: C _ 144945_20, C _ 27876021_10, C _ 321871_10, C _ 16170352_20, and C _ 9501579_10 for EGFR polymorphisms; C _ 15854163_70 and C _ 9510352_10 for ABCG2 polymorphisms; C _ 7586662_10, C _ 7586657_20, C_11711720D_40, and C_11711720C_30 for ABCB1 polymorphisms; and C _ 8890133_30 and C _ 8890131_30 for POR polymorphisms). The real-time PCR reaction mix included 4.5 ng of DNA template diluted in 4.5 µL DNase‑Free distilled water, 5 µL TaqMan® Universal Master Mix II with UNG (Uracil-N-Glycosylase), and 0.5 µL TaqMan® SNP Genotyping Assay mix, including the primers and probes, in a total volume of 10 µL. The reactions were performed under the following conditions: UNG incubation at 50 °C for 2 min and polymerase activation at 95 °C for 10 min, followed by 50 cycles of 95 °C for 15 s and 60 °C for 60 s.
ABCG2 polymorphism (rs2231137) was studied using the CycleavePCR® assay (TaKaRa Bio Inc., Kusatsu, Shiga, Japan). The primers and probes for ABCG2 rs2231137 were designed using the CycleavePCR Assay Designer (SNPs, TaKaRa Bio Inc.): forward 5′- […]-3′; reverse 5′-[…]-3′; FAM-labeled probe 5′-(Eclipse)[…][G]TG(FAM)-3′; and HEX-labeled probe 5′-(Eclipse)TATCCCA[A]TGT(HEX)-3′. The real-time PCR reaction mix per reaction included 4 ng of DNA template diluted in 10.5 μL DNase‑Free distilled water, 12.5 μL CycleavePCR Reaction Mix, 0.5 μL each of forward and reverse primers, and 1 μL each of FAM/HEX-labeled probes in a total volume of 26 μL. The reactions were performed under the following conditions: initial denaturation at 95 °C for 10 s, followed by 50 cycles at 95 °C for 5 s, 55 °C for 10 s, and 72 °C for 20 s.
After real-time PCR, the result of the allelic discrimination was plotted by reading the generated fluorescence using CFX Manager Software version 3.1 (Bio-Rad Laboratories). For quality control, all the polymorphisms were genotyped more than twice.

[2] = human, in vivo
Procedure: This prospective, longitudinal observational study was designed and conducted at the Ageo Central General Hospital from February 2019 to July 2020 and Keio University Hospital from June 2020 to April 2022. The primary endpoint was the association of exposures to osimertinib, AZ5104, AZ7550, or germline polymorphisms with AE severity. […] Patients who were mentally or physically incapable of providing informed consent were excluded from the study. […] The study was conducted with adherence to the Declaration of Helsinki.

[3] = cited from earlier work; for Fraction of metabolite conversion from the parent: fixed in the PopPK model
clinical [4] = details: human, in vivo
clinical [5] = details: human, in vivo; remark: listed apart in the source
Procedure: Patients were asked to determine the time of drug intake. The collected serum and whole peripheral blood samples were stored at − 80 °C until analysis.
Several candidate PopPK models with different structures were compared based on the goodness-of-fit (GOF) plots and the objective function value (OFV) expressed as minus twice log likelihood (−2LL), and the difference in OFV between the two nested models was statistically evaluated using the chi-square test (the decrease in −2LL >3.84, p < 0.05, was considered statistically significant).
Stepwise covariate analysis was performed to evaluate the effect of covariates on clearance and volume of distribution. The significance of the effect was assessed by the −2LL value; decrease in −2LL of >3.84 (p < 0.050) for the forward addition was considered significant. The impact of body weight (BW), albumin (ALB), age (AGE), sex, aspartate aminotransferase (AST), and alanine aminotransferase (ALT) levels on CLparent/F, CLm5/F, and CLm7/F was evaluated. In addition, BW, ALB, AGE, and sex were evaluated on Vparent/F, Vm5/F, and Vm7/F. The covariates were modeled as shown in equation (c) in the power form for continuous covariates, equation (d) with log-transformation for continuous covariates with outliers, and equation (e) for categorical covariates: […]
The candidate PopPK models were evaluated by goodness of fit, ∆−2LL values, η-shrinkage, and relative standard error (RSE%). […] The uncertainty of the parameters was estimated by performing a bootstrap. The original dataset was randomly resampled to generate 1000 samples, and the parameters estimated from the successful runs were compared to those estimated from the original dataset.

[6] = cited from earlier work
wild-type EGFR = details: higher potency; cited from earlier work
[7] = Osimertinib AUC0-24 <4938 ng/mL*h, n = 29, any grade
[8] = Osimertinib AUC0-24 <4938 ng/mL*h, n = 29, grade ≥2
[9] = Osimertinib AUC0-24 ≥4938 ng/mL*h, n = 22, any grade
[10] = Osimertinib AUC0-24 ≥4938 ng/mL*h, n = 22, grade ≥2

C=CC(=O)Nc1cc(Nc2nccc(-c3cn(C)c4ccccc34)n2)c(OC)cc1N(C)CCN(C)C [osimertinib]
Any grade ≥ 2 AEs in patients with ABCG2 rs2231137 G/A or A/A genotypes [1]: higher frequency | Association of ABCB1 rs1128503 C > T (C/T and T/T genotypes) with any grade ≥ 2 AEs [1]: significant association | Association of ABCB1 rs2032582 G > T/A (A/T and G/T genotypes) with any grade ≥ 2 skin disorders [1]: associated | Association of ABCB1 rs2032582 G > T/A (A/T and G/T genotypes) with grade ≥ 2 lymphocyte count decrease [1]: associated | Association of EGFR rs2293348 C > T (C/T genotype) with any severe AEs [1]: associated with any severe AEs | Association of EGFR rs2293348 C > T (C/T genotype) with grade ≥ 1 or ≥ 2 anorexia [1]: significantly associated | Association of EGFR rs4947492 G > A (A/A genotype) with any severe AEs [1]: associated with any severe AEs | Association of polymorphisms in POR with any AEs or PK [1]: not significantly associated | Association of EGFR-TKI treatment line with severe AEs [2]: higher frequency of severe AEs in patients receiving therapy as first-line treatment | Severe liver dysfunction within the observation period [2]: No patient | Patients who experienced severe AEs (grade 3 or leading to dose discontinuation) ([2]; 3 months): Approximately 25% | Patients with grade ≥ 2 skin disorders (most prevalent grade ≥ 2 AE) ([2]; 3 months): 63% | Patients with interstitial lung disease leading to treatment discontinuation ([2]; 3 months): 2.0% | Half-life [3]: 59.7 h | Oral bioavailability [3]: 69.8% | AUC(0-t) (clinical [4]): 5530 ng·h/mL | Clearance CL/F (θ1, θ4, θ6) (clinical [5]): 17.37 L/h | Coefficient of variation for clearance (CL/F) (clinical [5]): 30% | Volume of distribution V/F (θ2, θ5, θ7) (clinical [5]): 1386 L | Vd/F (clinical [5]; Volume of distribution V/F (θ2, θ5, θ7)): 1270 L | Association between AUC0–24 and grade ≥ 2 increased creatinine (Mann–Whitney U test): significant association | Anorexia, % of patients [7]: (10.3) % | Anorexia, No. of patients [7]: 3 | Any adverse events, % of patients [7]: (100.0) % | Any adverse events, No. of patients [7]: 29 | Creatinine increased, % of patients [7]: (44.8) % | Creatinine increased, No. of patients [7]: 13 | Diarrhea, % of patients [7]: (58.6) % | Diarrhea, No. of patients [7]: 17 | Interstitial lung disease, % of patients [7]: (0.0) % | Interstitial lung disease, No. of patients [7]: 0 | Paronychia, % of patients [7]: (37.9) % | Paronychia, No. of patients [7]: 11 | Anorexia, % of patients [8]: (6.90) % | Anorexia, No. of patients [8]: 2 | Any adverse events, % of patients [8]: (69.0) % | Any adverse events, No. of patients [8]: 20 | Creatinine increased, % of patients [8]: (0.0) % | Creatinine increased, No. of patients [8]: 0 | Diarrhea, % of patients [8]: (0.0) % | Diarrhea, No. of patients [8]: 0 | Interstitial lung disease, % of patients [8]: (0.0) % | Interstitial lung disease, No. of patients [8]: 0 | Paronychia, % of patients [8]: (27.6) % | Paronychia, No. of patients [8]: 8 | Anorexia, % of patients [9]: (18.2) % | Anorexia, No. of patients [9]: 4 | Any adverse events, % of patients [9]: (100.0) % | Any adverse events, No. of patients [9]: 22 | Creatinine increased, % of patients [9]: (50.0) % | Creatinine increased, No. of patients [9]: 11 | Diarrhea, % of patients [9]: (45.5) % | Diarrhea, No. of patients [9]: 10 | Interstitial lung disease, % of patients [9]: (4.5) % | Interstitial lung disease, No. of patients [9]: 1 | Paronychia, % of patients [9]: (54.5) % | Paronychia, No. of patients [9]: 12 | Anorexia, % of patients [10]: (13.6) % | Anorexia, No. of patients [10]: 3 | Any adverse events, % of patients [10]: (95.5) % | Any adverse events, No. of patients [10]: 21 | Creatinine increased, % of patients [10]: (18.2) % | Creatinine increased, No. of patients [10]: 4 | Diarrhea, % of patients [10]: (13.6) % | Diarrhea, No. of patients [10]: 3 | Interstitial lung disease, % of patients [10]: (4.5) % | Interstitial lung disease, No. of patients [10]: 1 | Paronychia, % of patients [10]: (27.3) % | Paronychia, No. of patients [10]: 6 | Sensitivity of AUC0–24 cut-off for grade ≥ 2 AEs (ROC curve): 51% | Specificity of AUC0–24 cut-off for grade ≥ 2 AEs (ROC curve): 90% | Patients experiencing grade ≥ 2 adverse events [6]: over 80% | Patients experiencing grade ≥ 3 adverse events [6]: > 30%

C=CC(=O)Nc1cc(Nc2nccc(-c3c[nH]c4ccccc34)n2)c(OC)cc1N(C)CCN(C)C [AZ5104]
Half-life [3]: 52.6 h | Fraction of metabolite conversion from the parent [3]: 25% | Clearance CL/F (θ1, θ4, θ6) (clinical [5]): 44.41 L/h | Coefficient of variation for clearance (CL/F) (clinical [5]): 35% | Inter-occasion variance of clearance (ω^2 CL,IOV) (clinical [5]): 0.034 | Potency against wild-type EGFR compared with the parent compound (wild-type EGFR): 15 fold

C=CC(=O)Nc1cc(Nc2nccc(-c3cn(C)c4ccccc34)n2)c(OC)cc1N(C)CCNC [AZ7550]
Circulating exposure of active metabolite relative to the parent compound [3]: 10% | Half-life [3]: 72.7 h | Fraction of metabolite conversion from the parent [3]: 25% | AUC0–24 at steady state, median (IQR) (clinical [5]): 367 (275–516) ng/mL*h | Clearance CL/F (θ1, θ4, θ6) (clinical [5]): 46.2 L/h | Coefficient of variation for clearance (CL/F) (clinical [5]): 27% | Association between AUC0–24 and grade ≥ 2 anorexia (human, in vivo): significant association | Association between AUC0–24 and grade ≥ 2 increased creatinine (human, in vivo): significant association | Association between AUC0–24 and grade ≥ 2 paronychia (human, in vivo): significant association | Sensitivity of AUC0–24 cut-off for grade ≥ 2 AEs (human, in vivo): 49% | Specificity of AUC0–24 cut-off for grade ≥ 2 AEs (human, in vivo): 90% | Area under the ROC curve for predicting grade ≥ 2 AEs using AUC0–24 (in vivo): 0.651 | Cut-off AUC0–24 to predict grade ≥ 2 AEs (in vivo): 462 ng·h/mL
